Results on ten molecules are retold here after the NIST ThermoML archive (doi:10.1016/j.fluid.2005.06.024).

± gives the expanded uncertainty stated by the source.

The conditions of data set [1]: 298.15 K; 101.3 kPa; Liquid.
Data set [2] in a line: xn = mol fraction of the nth substance listed. To be noted: 298.15 K, 101.3 kPa, Liquid.

Turning to `CC(C)=O` [acetone], in data set [1], the mass density (commonly the mass of a sample divided by its volume) was 784.37 ± 0.31 kg/m3 and the speed of sound – broadly, how fast a sound wave travels through the sample – amounted to 1162 ± 2 m/s.

With `CC(C)=O` [acetone] + CCOC(=O)OCC, in data set [2] (x1 = 1), the mass density amounted to 784.37 ± 0.31 kg/m3 and the speed of sound amounted to 1162 ± 2 m/s.

Turning to `CCC(C)=O` [butanone], in data set [1], the mass density was 799.7 ± 0.35 kg/m3 and the speed of sound is given as 1192 ± 2 m/s.

As to `CCC(C)=O` [butanone] + CCOC(=O)OCC, in data set [2] (x1 = 1), the mass density came to 799.7 ± 0.35 kg/m3 and the speed of sound is reported as 1192 ± 2 m/s.

As to `CCOC(=O)OCC` [diethyl carbonate], in data set [1], the mass density worked out at 969.24 ± 0.27 kg/m3 and the speed of sound is listed as 1178 ± 2 m/s.

With `CCOC(=O)OCC` [diethyl carbonate] + CC(C)=O, the mass density was 969.24 ± 0.27 kg/m3 in data set [2] (x2 = 0); 964.96 ± 0.27 kg/m3 in data set [2] (x2 = 0.0384); 959 ± 0.26 kg/m3 in data set [2] (x2 = 0.0901); 947.54 ± 0.26 kg/m3 in data set [2] (x2 = 0.1832); 934.21 ± 0.25 kg/m3 in data set [2] (x2 = 0.2827); 919.29 ± 0.25 kg/m3 in data set [2] (x2 = 0.3847). Also, the mass density is recorded as 903.08 ± 0.26 kg/m3 in data set [2] (x2 = 0.4847); 884.33 ± 0.26 kg/m3 in data set [2] (x2 = 0.5888); 863.26 ± 0.26 kg/m3 in data set [2] (x2 = 0.6936); 839.9 ± 0.27 kg/m3 in data set [2] (x2 = 0.7967); 813 ± 0.29 kg/m3 in data set [2] (x2 = 0.9017); 798.07 ± 0.3 kg/m3 in data set [2] (x2 = 0.9546). Besides, the speed of sound stood at 1178 ± 2 m/s in data set [2] (x2 = 0); 1177 ± 2 m/s in data set [2] (x2 = 0.0384); 1176 ± 2 m/s in data set [2] (x2 = 0.0901); 1175 ± 2 m/s in data set [2] (x2 = 0.1832); 1173 ± 2 m/s in data set [2] (x2 = 0.2827); 1171 ± 2 m/s in data set [2] (x2 = 0.3847). For the same molecule, the speed of sound in data set [2] (x2 = 0.4847) was determined as 1170 ± 2 m/s; in data set [2] (x2 = 0.5888), 1168 ± 2 m/s; in data set [2] (x2 = 0.6936), 1166 ± 2 m/s; in data set [2] (x2 = 0.7967), 1164 ± 2 m/s; in data set [2] (x2 = 0.9017) it was 1162 ± 2 m/s; in data set [2] (x2 = 0.9546) it was 1162 ± 2 m/s.

With `CCOC(=O)OCC` [diethyl carbonate] + CCC(C)=O, the mass density in data set [2] (x2 = 0) stood at 969.24 ± 0.27 kg/m3; in data set [2] (x2 = 0.0486), 963.14 ± 0.27 kg/m3; in data set [2] (x2 = 0.1002), 956.52 ± 0.28 kg/m3; in data set [2] (x2 = 0.1958) it was 943.68 ± 0.28 kg/m3; in data set [2] (x2 = 0.2977), 929.22 ± 0.29 kg/m3; in data set [2] (x2 = 0.399) it was 913.95 ± 0.29 kg/m3. Further, the mass density in data set [2] (x2 = 0.4976) was 898.2 ± 0.31 kg/m3; in data set [2] (x2 = 0.6444), 872.87 ± 0.31 kg/m3; in data set [2] (x2 = 0.7172), 859.36 ± 0.32 kg/m3; in data set [2] (x2 = 0.8294), 837.19 ± 0.33 kg/m3; in data set [2] (x2 = 0.9031), 821.58 ± 0.34 kg/m3; in data set [2] (x2 = 0.9554), 810.05 ± 0.34 kg/m3. Further, the speed of sound in data set [2] (x2 = 0) is 1178 ± 2 m/s; in data set [2] (x2 = 0.0486) it was 1178 ± 2 m/s; in data set [2] (x2 = 0.1002), 1179 ± 2 m/s; in data set [2] (x2 = 0.1958) it was 1180 ± 2 m/s; in data set [2] (x2 = 0.2977), 1181 ± 2 m/s; in data set [2] (x2 = 0.399), 1182 ± 2 m/s. In addition, the speed of sound in data set [2] (x2 = 0.4976) was 1184 ± 2 m/s; in data set [2] (x2 = 0.6444) it was 1186 ± 2 m/s; in data set [2] (x2 = 0.7172) it was 1187 ± 2 m/s; in data set [2] (x2 = 0.8294) it was 1189 ± 2 m/s; in data set [2] (x2 = 0.9031), 1190 ± 2 m/s; in data set [2] (x2 = 0.9554), 1191 ± 2 m/s.

As to `CCOC(=O)OCC` [diethyl carbonate] + CCCC(C)=O, in data set [2] (x2 = 0), the mass density is recorded as 969.24 ± 0.27 kg/m3 and the speed of sound was found to be 1178 ± 2 m/s.

In the case of `CCCC(C)=O` [pentan-2-one], in data set [1], the mass density is 801.39 ± 0.35 kg/m3 and the speed of sound worked out at 1212 ± 2 m/s.

Take `CCCC(C)=O` [pentan-2-one] + CCOC(=O)OCC: the mass density was determined as 962.08 ± 0.27 kg/m3 in data set [2] (x1 = 0.0483); 954.6 ± 0.28 kg/m3 in data set [2] (x1 = 0.0983); 940.27 ± 0.28 kg/m3 in data set [2] (x1 = 0.1923); 923.61 ± 0.29 kg/m3 in data set [2] (x1 = 0.2988); 907.38 ± 0.3 kg/m3 in data set [2] (x1 = 0.3998); 890.92 ± 0.31 kg/m3 in data set [2] (x1 = 0.4996). Further, the mass density was 873.34 ± 0.31 kg/m3 in data set [2] (x1 = 0.6034); 855.18 ± 0.32 kg/m3 in data set [2] (x1 = 0.7077); 838 ± 0.33 kg/m3 in data set [2] (x1 = 0.8037); 819.83 ± 0.34 kg/m3 in data set [2] (x1 = 0.9026); 811.1 ± 0.34 kg/m3 in data set [2] (x1 = 0.9491); 801.39 ± 0.35 kg/m3 in data set [2] (x1 = 1). In addition, the speed of sound is listed as 1179 ± 2 m/s in data set [2] (x1 = 0.0483); 1180 ± 2 m/s in data set [2] (x1 = 0.0983); 1183 ± 2 m/s in data set [2] (x1 = 0.1923); 1187 ± 2 m/s in data set [2] (x1 = 0.2988); 1190 ± 2 m/s in data set [2] (x1 = 0.3998); 1193 ± 2 m/s in data set [2] (x1 = 0.4996). In addition, the speed of sound in data set [2] (x1 = 0.6034) is given as 1197 ± 2 m/s; in data set [2] (x1 = 0.7077) it was 1201 ± 2 m/s; in data set [2] (x1 = 0.8037) it was 1204 ± 2 m/s; in data set [2] (x1 = 0.9026), 1208 ± 2 m/s; in data set [2] (x1 = 0.9491) it was 1210 ± 2 m/s; in data set [2] (x1 = 1), 1212 ± 2 m/s.
